# In patent publication US4448777A, “1-Phenylindazole-3-one compounds, process and intermediates for their preparation, and pharmaceutical compositions containing same” (Kali-Chemie Pharma GmbH, priority 1981, dated 1984):
# Tested on: passive cutaneous anaphylaxis (PCA)
# Assay: Inhibition of passive cutaneous anaphylaxis (PCA test) in rats
# Format: in vivo
# Details: 10 minutes before intraperitoneal ovoalbumin and Evans blue, blue spot diameter after 30 minutes; for ED50: Rattus norvegicus, po, read-out: P.C.A. Inhibition ED50; for P.C.A. Inhibition ED50: oral
# Description: For example, the substances have an inhibiting action on the release of endogenic mediators, from mast cells or basophilic leucocytes, which leads to allergic reactions. The doses to be used vary, of course, depending upon the nature of the substance used, upon the mode of administration and upon the condition to be treated. In general, however, satisfactory results are obtained in animal experiments with peroral doses of between 0.05 and 75 mg. per kg. of body weight. Thus, the new compounds have a specific inhibiting action in the PCA test (passive cutaneous anaphylaxis)in rats which is described below.
# Description of the test method to determine the inhibition of passive cutaneous anaphylasis (PCA test, see Arch.int.pharmacology 252 (1981) 316-326)
# To prepare the IgE-antiovoalbumin serum, used in this test, by the method of Mota (Immunology 7, (1964) 681) and J. Goose (Immunology 16 (1969) 749), male Wistar rats of 200-250 g. body weight were sensitised by subcutaneous injection of 1 mg. of ovoalbumin and 1 ml. of Bordetella pertussis suspension ("Vaxicoq" Merieux 3×10^10 organisms/ml). After 14 days, the animals are exsanguinated and the blood is centrifuged. The antiserum thus obtained is stored at […].
# Non-sensitised rats were injected with in each case 0.1 ml. of antiserum into the skin at in each case four different sites on their shaven backs. After 72 hours, a solution of the test compound, or, for comparison, only the solvent, is administered orally, and 10 minutes later 5 mg. of ovoalbumin and 5 mg. of blue dye (Evans blue) in 0.9% strength sodium chloride solution are administered intraperitoneally. After 30 minutes, the animals are sacrificed and the diameters of the blue spots formed at the sites injected with the antiserum are measured. The inhibiting effect of the test substance is determined from the size of the blue spots which occur. […]
Structure (SMILES),ED50 [mg/kg],P.C.A. Inhibition ED50 [mg/kg]
COc1ccc2c(c1)c(=O)n(CCCCN1CCN(c3cc(C)ccn3)CC1)n2-c1ccccc1 [Example 28],5.7,
COc1ccc2c(c1)c(=O)n(CCCCN1CCN(c3ccccc3OC)CC1)n2-c1ccccc1 [Example 29],14,
Cc1ccnc(N2CCN(CCCCn3c(=O)c4ccccc4n3-c3ccccc3)CC2)c1 [Example 20],,7.5
Cc1ccnc(N2CCN(CCCn3c(=O)c4ccccc4n3-c3ccccc3)CC2)c1 [Example 21],19.2,
O=c1c2ccccc2n(-c2ccccc2)n1CCCCN1CCN(c2ccc(F)cc2)CC1 [Example 17],17.9,
COc1ccccc1N1CCN(CCCCn2c(=O)c3ccc(Cl)cc3n2-c2ccccc2)CC1 [Example 26],22,
Cc1ccnc(N2CCN(CCCCn3c(=O)c4ccccc4n3-c3cccc(C(F)(F)F)c3)CC2)c1 [Example 32],6.6,
O=c1c2ccccc2n(-c2ccccc2)n1CCCCN1CCN(c2ccccc2)CC1 [Example 12],22,
O=c1c2ccccc2n(-c2ccccc2)n1CCCCN1CCN(c2ccccn2)CC1 [Example 18],25,
O=c1c2ccccc2n(-c2ccccc2)n1CCCN1CCN(c2ccc(F)cc2)CC1 [Example 15],10.6,
Cc1ccnc(N2CCN(CCCCn3c(=O)c4ccccc4n3-c3ccccc3)CC2)c1 [Example 49],,15.5
O=c1c2ccccc2n(-c2ccccc2)n1CCCN1CCN(c2ccccn2)CC1 [Example 19],11.5,
